Results from US20130297023A1, “Methods and Devices For Treating Intervertebral Disc Disease” (priority 2012, published 2013).

Key:
human NP cells [1] = assay: Gelatin zymography of conditioned media from LPS- or IL-1-stimulated human NP cells; assay type: cell-based; details: MyD88i 100 μM, 24 hr, p<0.01
Method: For short-term monolayer cultures, isolated NP cells from either bovine tails or human spine discs were counted and plated onto 12-well plates at 8×10^5 cells/cm^2 as previously described (Im et al., 2003; Im et al., 2007b). Cells were stimulated with either IL-1 (10 ng/mL, NCI) or LPS (10 μg/mL, Sigma-Aldrich, St. Louis, Mont.) in the presence or absence of MyD88 peptide inhibitor (MyD88i; IMGENEX, San Diego, Calif.) at the concentration of 100 μM, in 1 mL per well of serum-free medium for 24 hours at 37° C. under 5% CO2. Supernatants were collected 24 hours after the initiation of each treatment and subjected to western blotting analyses for secreted matrix-degrading enzyme production. […]
Gelatin zymography was then performed as previously described (Gupta et al., 2007). […] After development, gel images were captured and the clear bands were analyzed using “ImageJ” image analysis software (www.imagej.nih.gov), and were expressed in arbitrary optical density units. […]
Because MyD88i effectively suppresses expression and/or production of multiple cartilage degrading enzymes, TLR-2 and stress-associated genes after stimulation with either LPS or IL-1 (FIGS. 1˜4), the role of MyD88i in antagonizing catalytic enzyme activity was further analyzed by performing reverse zymography (FIG. 5). […]

human NP cells [2] = assay: Real-time qPCR and western blotting of LPS- or IL-1-induced MMP-13, MMP-1, ADAMTS-4 and iNOS in human NP cell monolayers; assay type: cell-based; details: co-treatment MyD88i 100 μM, 24 hr
Method: (§1) Human spine segments (T11/12 to S1) were received within 24 hours of death of donors from the Gift of Hope Organ and Tissue Donor Network (Elmhurst, Ill.), after obtaining consent from the families. Each of the lumbar segments underwent magnetic resonance imaging (MRI). Intact disc specimens (Thompsons grade 2 or 3) were removed and processed aseptically (Thompson et al., 1990; Kim et al., 2009). After dissection of the NP portion of discs either from human or bovine tails, NP cells were released by enzymatic digestion in Dulbecco's modified Eagle's medium [(DMEM)/Ham's F-12 (1:1)] culture medium with sequential treatments of 0.2% pronase and 0.025% collagenase P, as previously described (Kim et al.; Loeser et al., 2003). Alginate beads and monolayers were prepared for long-term (21 days) and short-term studies (1-2 days) as previously described by our group (Kim et al.; Im et al., 2003; Im et al., 2007b; Im et al., 2008; Li et al., 2008a).
(§2) For short-term monolayer cultures, isolated NP cells from either bovine tails or human spine discs were counted and plated onto 12-well plates at 8×10^5 cells/cm^2 as previously described (Im et al., 2003; Im et al., 2007b). Cells were stimulated with either IL-1 (10 ng/mL, NCI) or LPS (10 μg/mL, Sigma-Aldrich, St. Louis, Mont.) in the presence or absence of MyD88 peptide inhibitor (MyD88i; IMGENEX, San Diego, Calif.) at the concentration of 100 μM, in 1 mL per well of serum-free medium for 24 hours at 37° C. under 5% CO2. Supernatants were collected 24 hours after the initiation of each treatment and subjected to western blotting analyses for secreted matrix-degrading enzyme production. Cells were harvested and prepared for either cell lysates or total RNA extraction followed by real-time qPCR analyses, as previously described (Li et al., 2008b). 18s rRNA was used for normalization.
(§3) Total RNA was isolated from the cells using Trizol reagent (Invitrogen, Carlsbad, Calif.) following the instructions provided by the manufacturer. Reverse transcription was carried out with 1 μg total RNA using the ThermoScript™ RT-PCR system (Invitrogen, Carlsbad, Calif.) for first strand cDNA synthesis.
(§4) For real-time qPCR, cDNA was amplified using MyiQ Real-Time qPCR Detection System (Bio-Rad Hercules, Calif.). The synthesized cDNA was subjected to real-time qPCR utilizing the Bio-Rad iQTM SYBR Green supermix (Bio-Rad Hercules, Calif.). A threshold cycle (Ct value) was obtained from each amplification curve using iQ5 Optical System Software provided by the manufacturer (Bio-Rad Hercules, CA). Relative mRNA expression was determined using the ^ΔΔCT and calculated as follows: ^ΔΔCT=^ΔCT (gene of interest)−^ΔCT (endogenous control). Gene quantification was conducted for entire, individual treatment groups and expressed in terms of fold change from untreated control levels. Expression of 18s rRNA was used as the internal control. The deviations in samples represent 3 different donors in 3 separate experiments.
Cell and tissue lysates were prepared using modified RIPA buffer, as previously described (Li et al., 2008a; Li et al., 2008c). The total protein concentrations of cell lysates were determined by a bicinchoninic acid protein assay (Pierce, Rockford, Ill., USA). An equal amount of protein was resolved by 10% SDS-polyacrylamide gels (SDS-PAGE) and transferred to a nitrocellulose membrane for immunoblot analyses, as described previously (Im et al., 2007b). MMP-13 and MMP-1 antibodies were provided by courtesy of Dr. Gillian Murphy (Cambridge University, UK) Immunoreactivity was visualized using the ECL system (Amersham Biosciences, Piscataway, N.J., USA) and the Signal Visual Enhancer system (Pierce), which magnifies the signal.

mouse lumbar spine discs = assay: Ex vivo intradiscal injection organ culture model, Safranin O-fast green histology for PG loss; details: intradiscal injection 150 μM per disc, IL-1 100 ng/mL, 6 days organ culture
Method: Lumbar spine segments from deceased mice were dissected under sterile conditions within 12 hrs after sacrifice at the Rush University animal facility for ex vivo organ culture, as previously described (Chiba et al., 1998). The requirement for the pre-treatment of MyD88 has been previously described (Ahmad et al., 2007). Therefore, intradiscal pre-injection of MyD88i ([…]) en bloc was performed using a 30-gauge needle (30 G, 1.50 μL volume). Injected discs were then separated and incubated in DMEM/Ham's F-12 medium supplemented with 1% mini-ITS. After 24 hrs, the MyD88i pre-injected discs were challenged with either IL-1 (100 ng/mL) or LPS (10 μg/mL) and further incubated for 6 days. Harvested discs were fixed in 4% paraformaldehyde and then decalcified in EDTA, which was changed every 5 days. The decalcified discs were paraffin embedded. Serial disc sections of exactly 5-μm thickness were obtained to prepare slides. Safranin O-fast green staining was performed to assess general morphology and the loss of PG in disc ground substance.
Harvested discs were fixed in 4% paraformaldehyde and decalcified in EDTA, which was changed every 5 days. The decalcified discs were paraffin embedded. Serial disc sections of exactly 5-μm thickness were obtained to prepare slides. […]

bovine NP cells = assay: Real-time qPCR of LPS- or IL-1-induced catabolic genes and TLR-2 in bovine NP cell monolayers; assay type: cell-based
Method: as §1, §2, §3, §4
Therefore, NP cells were treated with MyD88i (100 μM), LPS or IL-1, individually, or combinations of LPS and MyD88i or IL-1 and MyD88i for 24 hours. Resulting cellular responses were then analyzed for alterations in gene expression and/or secreted protein levels. Our data reveal the significant upregulation of collagenase (MMP-13) and aggrecanases (ADAMTS-4, ADAMTS-5) after stimulation with either LPS or IL-1 compared to control (untreated) in bovine NP cells (FIGS. 1A˜C).

[3] = MyD88i 100 μM, IL-1 10 ng/mL, 24 hr, qPCR, p<0.05
[4] = MyD88i 100 μM, LPS 10 μg/mL, 24 hr, qPCR, p<0.01

## DRQIKIWFQNRRMKWKKRDVLPGT [MyD88i]
Human NP cells [1]; IL-1 10 ng/mL
  IL-1-induced catalytic enzyme activity (gelatin zymography, densitometry): markedly suppressed
Human NP cells [1]; LPS 10 μg/mL
  LPS-induced catalytic enzyme activity (gelatin zymography, densitometry): markedly suppressed
Human NP cells [2]; IL-1 10 ng/mL, p<0.05
  IL-1-induced collagenases MMP-13 and MMP-1, mRNA and protein levels: significant decreases
Human NP cells [2]; IL-1 10 ng/mL, qPCR, p<0.05
  induction of ADAMTS-4 expression by IL-1: significantly reduced
Human NP cells [2]; IL-1 10 ng/mL, qPCR, p<0.05 vs IL-1 alone
  IL-1-induced iNOS gene levels: significant suppression
Human NP cells [2]; LPS 10 μg/mL, p<0.01
  LPS-induced collagenases MMP-13 and MMP-1, mRNA and protein levels: significant decreases
Human NP cells [2]; LPS 10 μg/mL, qPCR, p<0.01
  induction of ADAMTS-4 expression by LPS: significantly reduced
Human NP cells [2]; LPS 10 μg/mL, qPCR, p<0.01 vs LPS alone
  LPS-induced iNOS gene levels: significant suppression
Mouse lumbar spine discs
  IL-1-induced PG loss in disc organ culture: significantly attenuates
Bovine NP cells; [3]
  IL-1-induced upregulation of catabolic gene expression (MMP-13, ADAMTS-4, ADAMTS-5): significantly suppresses
  IL-1-stimulated TLR-2 levels: significant decrease
Bovine NP cells; [4]
  LPS-induced upregulation of catabolic gene expression (MMP-13, ADAMTS-4, ADAMTS-5): significantly suppresses
  LPS-stimulated TLR-2 levels: significant decrease
Bovine NP cells; initial experiments, monolayer cultures, different concentrations of MyD88i
  minimal dose demonstrating maximal effects: 100 µM
